The values that follow come from patent publication US8143419B2, “Trisubstituted 1,2,4-triazoles” (Janssen Pharmaceutica N. V., priority 2006, dated 2012).

Where only a bound is given, the exact number is not on record here.

Series [1] deals with T1, hα7-wt nAChR (Homo sapiens, UniProt P36544).
T1 construct: expressed in transfected cells
Nature of the series: Ca2+ flux imaging (FDSS) (Protocol B), PAM activity with choline as agonist. It is filed as cell-based. The settings on record: for EC50: "<5" = no top plateau at maximal concentration; for Emax: read-out: % efficacy. The procedure, abridged:
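Cells stably expressing human wild-type α7 nAChR, loaded with fluo-4AM (2 μM final) up to 120 min in HBSS/10 mM HEPES/5 mM CaCl2/0.1% BSA with 5 mM probenecid. Compounds (0.01–30 μM) added up to 10 min before 100 μM choline; peak fluorescence read on FDSS, potentiation expressed relative to choline-alone response (100%).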
For orientation: A change in cytosolic calcium serves as a functional read-out for many receptors and channels.

T1 sequence (P36544 23-502): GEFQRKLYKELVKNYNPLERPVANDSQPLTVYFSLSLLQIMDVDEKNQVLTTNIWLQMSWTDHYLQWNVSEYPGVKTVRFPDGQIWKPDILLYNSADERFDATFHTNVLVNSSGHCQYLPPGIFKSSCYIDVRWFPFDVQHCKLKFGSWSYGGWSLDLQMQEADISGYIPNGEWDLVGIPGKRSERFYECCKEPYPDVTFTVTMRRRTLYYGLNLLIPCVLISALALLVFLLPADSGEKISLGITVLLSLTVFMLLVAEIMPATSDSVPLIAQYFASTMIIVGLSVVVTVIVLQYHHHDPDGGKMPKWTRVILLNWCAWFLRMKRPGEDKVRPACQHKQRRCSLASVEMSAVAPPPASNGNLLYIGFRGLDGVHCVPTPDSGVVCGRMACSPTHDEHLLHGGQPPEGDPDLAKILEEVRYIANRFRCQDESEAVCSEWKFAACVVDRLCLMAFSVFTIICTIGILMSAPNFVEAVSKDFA

For orientation: melting point means the temperature, or range, at which the solid turns liquid. For orientation: EC50 means the concentration giving half of the maximal effect. Take `CNc1cc(-c2nc(Nc3ccc(F)c(C(F)(F)F)c3)nn2CCc2noc(C)n2)ccn1` [Compound 37]: the melting point was 188.7 °C. In series [1], the EC50 was 1.26 µM.
The matching figures for `CN(C)C(=O)CCn1nc(Nc2ccc(F)c(C(F)(F)F)c2)nc1-c1cccnc1` [Compound 125]: 190 °C and 0.631 µM.
With `COc1ccc(-c2nc(Nc3cccc(OC(F)(F)F)c3)nn2CC(=O)NC(C)C)cc1OC` [Compound 159], the melting point fell in the range of 182.5 to 186.1 °C. In series [1], the EC50 is 0.794 µM and the Emax was found to be 963%.
On to `CNC(=O)Cn1nc(Nc2cccc(OC(F)(F)F)c2)nc1-c1ccc(C2CC2)nc1` [Compound 155], for which the melting point came to 217 °C. Besides, the EC50 in series [1] was 0.316 µM.
Compound `CCNc1cc(-c2nc(Nc3ccc4c(c3)OC(F)(F)O4)nn2CC(C)O)ccn1` (stereo not shown) [Compound 199] yielded a melting point of 167.9 °C. Moreover, the EC50 in series [1] is 2.51 µM.
Taken in the same sequence, the figures for `CN1CCOc2cc(-c3nc(Nc4cccc(OC(F)(F)F)c4)nn3CC(=O)NC3CC3)ccc21` [Compound 165] were 168 °C and 0.158 µM.
Take `CNC(=O)Cn1nc(Nc2cccc(OC(F)(F)F)c2)nc1-c1ccncc1NC` [Compound 153]: the melting point was 208.6 °C. The EC50 in series [1] is 1.58 µM.
The matching figures for `CNC(=O)Cn1nc(Nc2ccc(F)c(C(F)(F)F)c2)nc1-c1ccncc1F` [Compound 116]: 249.5 °C and 1.26 µM.
`CC(C)NC(=O)Cn1nc(Nc2cccc(OC(F)(F)F)c2)nc1-c1ccc2c(c1)OCCN2C` [Compound 160] showed a melting point of 153.3 °C. Besides, the EC50 in series [1] is 0.126 µM.
As for `CC(C)c1ccc(-c2nc(Nc3ccc(F)cc3)nn2CCO)cn1` [Compound 169], the melting point was 135.1 °C. In series [1], the EC50 was 3.16 µM and the Emax came out at 762%.
`CNC(=O)Cn1nc(Nc2ccc(F)c(C(F)(F)F)c2)nc1-c1ccncc1OC` [Compound 109] had a melting point of 234.8 °C. Further, the EC50 in series [1] was 3.98 µM.
The matching figures for `C[C@H](O)Cn1nc(Nc2ccc(F)c(C(F)(F)F)c2)nc1-c1cnc2c(c1)OCC2` [Compound 105]: 174.4 °C and 3.98 µM.
Consider `OCCn1nc(Nc2cccc(C(F)(F)F)c2)nc1-c1ccc(C2CC2)nc1` [Compound 76], for which the melting point turned out to be 152.9 °C. Moreover, the EC50 in series [1] is 0.501 µM.
The compound `CC1(NC(=O)Cn2nc(Nc3cccc(OC(F)(F)F)c3)nc2-c2ccc3c(c2)OCCO3)CC1` [Compound 166] showed a melting point of 219.3 °C. Moreover, the EC50 in series [1] is 0.2 µM.
The matching figures for `Cc1cc(-c2nc(Nc3cccc(OC(F)(F)F)c3)nn2CC(=O)NC2CC2)ccn1` [Compound 164]: 190.7 °C and 2 µM.
Taken in the same sequence, the figures for `Cc1cc(-c2nc(Nc3ccc(F)c(C(F)(F)F)c3)nn2C[C@H](C)O)ccn1` [Compound 97] were 145.2 °C and 3.16 µM.
The matching figures for `CCNC(=O)Cn1nc(Nc2cc(F)c(F)c(F)c2)nc1-c1ccnc(NCC)c1` [Compound 180]: 259.6 °C and 0.158 µM.
Regarding `OCCn1nc(Nc2ccc(F)c(C(F)(F)F)c2)nc1-c1ccncc1F` [Compound 89], the melting point is 149.4 °C. The EC50 in series [1] is 5.01 µM.
On to `CCOc1ccc(-c2nc(Nc3ccc(F)c(C(F)(F)F)c3)nn2CC(=O)NC)cn1` [Compound 111], for which the melting point was 236.2 °C. Besides, in series [1], the EC50 is 0.251 µM.
The matching figures for `CNC(=O)Cn1nc(Nc2ccc(F)c(C(F)(F)F)c2)nc1-c1ccnc(NC)c1` [Compound 112]: 259.6 °C and 0.794 µM.
`OCCn1nc(Nc2cccc(C(F)(F)F)c2)nc1-c1ccncc1` [Compound 2] showed a melting point of 179.1 to 180 °C. Moreover, in series [1], the 50% effective concentration (EC50) was 7.94 µM.
Turning to `CCOc1ccc(-c2nc(Nc3ccc(F)cc3)nn2CCO)cn1` [Compound 170], the melting point is 162.2 °C. Also, the EC50 in series [1] is over 10 µM.
Taken in the same sequence, the figures for `CNc1ccc(-c2nc(Nc3ccc(F)c(C(F)(F)F)c3)nn2CCO)cn1` [Compound 92] were 179 °C and 3.16 µM.
The matching figures for `CN(C)C(=O)CCCn1nc(Nc2ccc(F)c(C(F)(F)F)c2)nc1-c1ccnc(Cl)c1` [Compound 68]: 168.8 °C and 0.794 µM.
The matching figures for `CN(C)C(=O)CCn1nc(Nc2cccc(OC(F)(F)F)c2)nc1-c1ccncc1` [Compound 168]: 178.4 °C and 0.501 µM.
As for `CCc1cc(-c2nc(Nc3cccc(C(F)(F)F)c3)nn2CCO)ccn1` [Compound 70], the melting point worked out at 167.9 °C. In addition, the EC50 in series [1] was 2 µM.
The compound `CNC(=O)Cn1nc(Nc2ccc(F)c(C(F)(F)F)c2)nc1-c1ccnc(C)c1` [Compound 107] yielded a melting point of 265 °C. For the same compound, in series [1], the EC50 is 1 µM.
For `CNC(=O)Cn1nc(Nc2cc(F)cc(F)c2)nc1-c1ccnc(C2CC2)c1` [Compound 179], the melting point is 222.4 °C. In addition, in series [1], the EC50 is 3.16 µM.
Taken in the same sequence, the figures for `OCCn1nc(Nc2cccc(C(F)(F)F)c2)nc1-c1ccc(N2CCOCC2)nc1` [Compound 77] were 145.6 °C and 2.51 µM.
In turn, `CCOc1ccc(-c2nc(Nc3ccc(F)c(C(F)(F)F)c3)nn2CCO)cn1` [Compound 91] registered a melting point of 157.9 °C. Further, the EC50 in series [1] is 0.501 µM.
`CNC(=O)Cn1nc(Nc2ccc(F)c(C(F)(F)F)c2)nc1-c1cnc2c(c1)OCC2` [Compound 28] registered a melting point of 246.8 °C. For the same compound, the EC50 in series [1] was 0.794 µM.
The matching figures for `OCCn1nc(Nc2ccc(F)c(C(F)(F)F)c2)nc1-c1ccncc1` [Compound 87]: 171.1 °C and 2.51 µM.
With `CN(C)C(=O)CCn1nc(Nc2ccc(F)c(C(F)(F)F)c2)nc1-c1ccnc(CNC(=O)C(F)(F)F)c1` [Compound 59], the melting point turned out to be 182.4 °C. Besides, in series [1], the EC50 was 0.158 µM and the Emax was 669%.
Compound `COc1cc(-c2nc(Nc3cccc(C(F)(F)F)c3)nn2CCO)ccn1` [Compound 73] had a melting point of 165.4 °C. Also, in series [1], the EC50 was 3.16 µM.
The compound `NC(=O)Cn1nc(Nc2cccc(C(F)(F)F)c2)nc1-c1ccncc1` [Compound 19] registered a melting point of 271 to 272.1 °C. In addition, the EC50 in series [1] is over 10 µM.
